Experimental findings from US10239887B2, “Positive allosteric modulators of the muscarinic acetylcholine receptor M4” (Vanderbilt University, priority 2016, dated 2019) are described below.

For orientation: Emax means the size of the effect at its maximum, as opposed to the concentration needed. What is called EC50 is the concentration needed to bring the measured effect to its halfway point.

Molecules are shown by their SMILES. Where a name gives a salt, the structure may show the parent alone. Read-outs that look alike come from different tables or passages of the source.

This experiment has as its target T1, human mAChR M4 (Homo sapiens, UniProt P08173).
T1 sequence (P08173 1-479): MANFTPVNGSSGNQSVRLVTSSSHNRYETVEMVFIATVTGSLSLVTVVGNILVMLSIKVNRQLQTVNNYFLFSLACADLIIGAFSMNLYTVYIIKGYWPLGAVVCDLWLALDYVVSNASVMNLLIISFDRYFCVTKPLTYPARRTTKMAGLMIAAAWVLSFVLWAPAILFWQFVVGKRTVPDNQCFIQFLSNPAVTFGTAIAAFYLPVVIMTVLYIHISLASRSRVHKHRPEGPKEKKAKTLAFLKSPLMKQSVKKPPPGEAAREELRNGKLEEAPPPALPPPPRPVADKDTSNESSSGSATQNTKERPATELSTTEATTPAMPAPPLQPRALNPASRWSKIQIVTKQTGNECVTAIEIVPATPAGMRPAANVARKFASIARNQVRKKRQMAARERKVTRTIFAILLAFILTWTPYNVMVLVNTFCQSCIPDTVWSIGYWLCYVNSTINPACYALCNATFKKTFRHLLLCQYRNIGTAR
The experiment is described as follows: mAChR M4 cell-based functional assay (calcium flux), human M4. To be noted: for EC50: Human M4 EC50, CHO-K1 hM4-Gqi5 cells, calcium flux, increase in EC20 acetylcholine response. (In general: A change in cytosolic calcium serves as a functional read-out for many receptors and channels.)

Setting [1] is: Human M4, % ACh maximum at 30 μM.

`Cc1cnc2sc3c(N4CCCC4)ncnc3c2c1` [Compound 15, 8-methyl-4-(pyrrolidin-1-yl) pyrido[3′,2′:4,5]thieno [3,2-d]pyrimidine]: the maximal effect (Emax) under setting [1] is 40%. Consider `Cc1cnc2sc3c(N4CCC(F)(F)C4)ncnc3c2c1` [Compound 16, 4-(3,3-difluoropyrrolidin-1-yl)-8-methylpyrido [3′,2′:4,5]thieno[3,2-d] pyrimidine], for which the concentration giving a half-maximal response (EC50) was found to be 0.377 µM. Further, under setting [1], the Emax worked out at 360%. On to `Cc1nnc2sc3c(N4CC(F)(F)C4)ncnc3c2c1C` [Compound 21, 8-(3,3-difluoroazetidin-1-yl)-3,4-dimethylpyrimido [4′,5′:4,5]thieno[2,3-c] pyridazine], for which the 50% effective concentration (EC50) is 0.426 µM. Moreover, under setting [1], the maximal response (Emax) was found to be 64%. Regarding `Cc1nnc2sc3c(NC4CN(c5ccc(C(F)(F)F)nc5)C4)ncnc3c2c1C` [Compound 22, 3,4-dimethyl-N-(1-(6-(trifluoromethyl)pyridin-3-yl)azetidin-3-yl) pyrimido[4′,5′:4,5]thieno [2,3-c]pyridazin-8-amine], the EC50 is no less than 10 µM. Further, the maximum response (Emax) under setting [1] worked out at 36%. The matching figures for `Cc1nnc2sc3c(NC4CCN(c5ccccc5)C4)ncnc3c2c1C` (stereo not drawn) [Compound 23, 3,4-dimethyl-N-(1-phenylpyrrolidin-3-yl) pyrimido[4′,5′:4,5]thieno [2,3-c]pyridazin-8-amine]: no less than 10 µM and 27%.

Take `Cc1nnc2sc3c(NC4CC4)ncnc3c2c1C` [Compound 25, N-cyclopropyl-3,4-dimethylpyrimido [4′,5′:4,5]thieno[2,3-c] pyridazin-8-amine]: the 50% effective concentration (EC50) was 0.468 µM. Moreover, the maximum response (Emax) under setting [1] amounted to 79%. Taken in the same sequence, the figures for `COc1ccc(C2CC2Nc2ncnc3c2sc2nnc(C)c(C)c23)cc1` (stereo not drawn) [Compound 26, N-(2-(4-methoxyphenyl)cyclopropyl)-3,4-dimethylpyrimido [4′,5′:4,5]thieno[2,3-c] pyridazin-8-amine] were no less than 10 µM and 44%. On to `COc1ccc(CNc2ncnc3c2sc2nnc(C)c(C)c23)cc1F` [Compound 27, N-(3-fluoro-4-methoxybenzyl)-3,4-dimethylpyrimido [4′,5′:4,5]thieno[2,3-c] pyridazin-8-amine], for which the Emax under setting [1] was 62%. The same measure, in the same setting: with `Cc1nnc2sc3c(N4CCC(c5ccccc5)C4)ncnc3c2c1C` (stereo not drawn) [Compound 28, 3,4-dimethyl-8-(3-phenylpyrrolidin-1-yl) pyrimido[4′,5′:4,5]thieno [2,3-c]pyridazine] the figure was 49%.

Regarding `Cc1nnc2sc3c(NCc4ccc(-c5cccnc5F)cc4)ncnc3c2c1C` [Compound 29, N-(4-(2-fluoropyridin-3-yl)benzyl)-3,4-dimethylpyrimido [4′,5′:4,5]thieno[2,3-c] pyridazin-8-amine], the EC50 was found to be 4.05 µM. Also, under setting [1], the Emax was determined as 61%. The matching figures for `Cc1nnc2sc3c(N4CC(Oc5ccc(F)cc5)C4)ncnc3c2c1C` [Compound 30, 8-(3-(4-fluorophenoxy)azetidin-1-yl)-3,4-dimethylpyrimido [4′,5′:4,5]thieno[2,3-c] pyridazine]: 2.61 µM and 65%.

`Cc1nnc2sc3c(N4CC(Oc5ccccc5F)C4)ncnc3c2c1C` [Compound 31, 8-(3-(2-fluorophenoxy)azetidin-1-yl)-3,4-dimethylpyrimido [4′,5′:4,5]thieno[2,3-c] pyridazine]: the EC50 is 2.16 µM. Also, under setting [1], the maximum response (Emax) is 60%. Regarding `Cc1nnc2sc3c(N4CC(Oc5cccc(F)c5)C4)ncnc3c2c1C` [Compound 32, 8-(3-(3-fluorophenoxy)azetidin-1-yl)-3,4-dimethylpyrimido [4′,5′:4,5]thieno[2,3-c] pyridazine], the EC50 worked out at 1.76 µM. For the same compound, the maximal response (Emax) under setting [1] came to 62%. Taken in the same sequence, the figures for `Cc1nnc2sc3c(N4CC(Oc5ccccc5)C4)ncnc3c2c1C` [Compound 33, 3,4-dimethyl-8-(3-phenoxyazetidin-1-yl) pyrimido[4′,5′:4,5]thieno [2,3-c]pyridazine] were 4.43 µM and 54%.

On to `Cc1nnc2sc3c(N4CC(C)(O)C4)ncnc3c2c1C` [Compound 34, 1-(3,4-dimethylpyrimido [4′,5′:4,5]thieno[2,3-c]pyridazin-8-yl)-3-methylazetidin-3-ol], for which the EC50 amounted to 0.66 µM. For the same compound, under setting [1], the Emax stood at 59%. Taken in the same sequence, the figures for `CC(=O)N1CC(Nc2ncnc3c2sc2nnc(C)c(C)c23)C1` [Compound 35, 1-(3-((3,4-dimethylpyrimido [4′,5′:4,5]thieno[2,3-c]pyridazin-8-yl)amino)azetidin-1-yl)ethan-1-one] were 0.053 µM and 79%. Take `Cc1nnc2sc3c(N4CC(=O)C4)ncnc3c2c1C` [Compound 36, 1-(3,4-dimethylpyrimido [4′,5′:4,5]thieno[2,3-c]pyridazin-8-yl) azetidin-3-one]: the concentration for a half-maximal effect (EC50) is 1 µM. For the same compound, under setting [1], the Emax was determined as 64%. Taken in the same sequence, the figures for `Cc1nc2oc3c(NCc4ccc(C(C)(C)O)cc4)ncnc3c2c(C)c1Cl` [Compound 39, 2-[4-[[(8-chloro-7,9-dimethyl-pyrido[3′,2′:4,5]furo[3,2-d]pyrimidin-4-yl)amino]methyl]phenyl] propan-2-ol] were 0.11 µM and 61.8%.

Turning to `CNc1ncnc2c1oc1nc(C)c(Cl)c(C)c12` [Compound 44, 8-chloro-N,7,9-trimethyl-pyrido[3′,2′:4,5]furo[3,2-d]pyrimidin-4-amine hydrochloride], the 50% effective concentration (EC50) worked out at 1.69 µM. Further, under setting [1], the maximal response (Emax) turned out to be 39.8%. `CCNc1ncnc2c1oc1nc(C)c(Cl)c(C)c12` [Compound 47, 8-chloro-N-ethyl-7,9-dimethyl-pyrido[3′,2′:4,5]furo[3,2-d]pyrimidin-4-amine hydrochloride]: the 50% effective concentration (EC50) was 1.25 µM. The maximal effect (Emax) under setting [1] was found to be 40.6%. Taken in the same sequence, the figures for `Cc1nc2oc3c(NC4CC4c4ccc(F)c(F)c4)ncnc3c2c(C)c1Cl` (stereo not drawn) [Compound 51, 8-chloro-N-[2-(3,4-difluorophenyl)cyclopropyl]-7,9-dimethyl-pyrido [3′,2′:4,5]furo[3,2-d]pyrimidin-4-amine hydrochloride] were 7.84 µM and 70%.

Turning to `Cc1cc(C)c2c(n1)oc1c(NC3CCC3)ncnc12` [Compound 55, N-Cyclobutyl-7,9-dimethyl-pyrido[3′,2′:4,5]furo[3,2-d]pyrimidin-4-amine hydrochloride], the Emax amounted to 44.2% and the concentration for a half-maximal effect (EC50) came out at 1.59 µM. For `Cc1cc(C)c2c(n1)oc1c(N3CC4(COC4)C3)ncnc12` [Compound 56, 7,9-dimethyl-4-(2-oxa-6-azaspiro[3.3]heptan-6-yl)pyrido[3′,2′:4,5]furo[3,2-d]pyrimidine], the 50% effective concentration (EC50) worked out at 3.37 µM. Also, the Emax under setting [1] was found to be 37.7%.

In the case of `Cc1cc(C)c2c(n1)oc1c(NCc3cccc(C(C)(C)O)c3)ncnc12` [Compound 57, 2-[3-[[(7,9-dimethylpyrido[3′,2′:4,5]furod[3,2-]pyrimidin-4-yl)amino]methyl]phenyl] propan-2-ol], the EC50 stood at 4.27 µM. For the same compound, the maximal effect (Emax) under setting [1] is 23.7%. For `Cc1cc(C)c2c(n1)oc1c(NC3CN(c4ncc(F)cn4)C3)ncnc12` [Compound 59, N-[1-(5-fluoropyrimidin-2-yl)azetidin-3-yl]-7,9-dimethyl-pyrido[3′,2′:4,5]furo[3,2-d]pyrimidin-4-amine hydrochloride], the Emax under setting [1] was 34.9%. With `Cc1cc(C)c2c(n1)oc1c(NC3CN(c4cc(Cl)ncc4Cl)C3)ncnc12` [Compound 60, N-[1-(2,5-dichloro-4-pyridyl)azetidin-3-yl]-7,9-dimethyl-pyrido[3′,2′:4,5]furo[3,2-d]pyrimidin-4-amine dihydrochloride], the Emax amounted to 49.3% and the concentration for a half-maximal effect (EC50) turned out to be 1.49 µM. For the compound `Cc1cc(C)c2c(n1)oc1c(NC3CC3c3ccc(F)c(F)c3)ncnc12` (stereo not drawn) [Compound 61, hydrochloride], the half-maximal effective concentration (EC50) amounted to 3.38 µM. Also, the Emax under setting [1] is 56.3%. Turning to `Cc1cc(C)c2c(n1)oc1c(NC3CC3)ncnc12` [Compound 62, N-cyclopropyl-7,9-dimethyl-pyrido[3′,2′:4,5]furo[3,2-d]pyrimidin-4-amine hydrochloride], the Emax is 63.9%. As for `Cc1nnc2oc3c(NC4CN(c5ncc(F)cn5)C4)ncnc3c2c1C` [Compound 63, N-[1-(5-Fluoropyrimidin-2-yl)azetidin-3-yl]-3,4-dimethyl-pyrimido[4′,5′:4,5]furo[2,3-c]pyridazin-8-amine], the maximal effect (Emax) under setting [1] was found to be 36.8%. For the compound `Cc1nnc2oc3c(NCc4ccc(C5(O)CCC5)cc4)ncnc3c2c1C` [Compound 64, 1-[4-[[(3,4-dimethylpyrimido [4′,5′:4,5]furo[2,3-c]pyridazin-8-yl)amino]methyl]phenyl] cyclobutanol], the EC50 turned out to be 0.862 µM. The Emax under setting [1] is 58.2%.

For `Cc1nnc2oc3c(NCc4ccc(C(C)(C)O)cc4)ncnc3c2c1C` [Compound 65, 2-[4-[[(3,4-dimethylpyrimido[4′,5′:4,5]furo[2,3-c]pyridazin-8-yl)amino]methyl]phenyl]propan-2-ol], the concentration giving a half-maximal response (EC50) worked out at 2.29 µM. Moreover, the Emax under setting [1] worked out at 61.2%. As for `Cc1nnc2oc3c(NCc4cccc(C5(O)CCC5)c4)ncnc3c2c1C` [Compound 66, 1-[3-[[(3,4-dimethylpyrimido [4′,5′:4,5]furo[2,3-c]pyridazin-8-yl)amino]methyl]phenyl]cyclobutanol], the maximum response (Emax) under setting [1] is 61.1%.
